Laboratory results from patent publication US20240350447A1, “DELIVERY METHODS FOR TREATING BRAIN AND CENTRAL NERVOUS SYSTEM DISEASES” (JENIVISION INC., priority 2021, published 2024).

Columns and labels:
[1] = DHA-EE distribution after single periorbital skin administration; type: in vivo, Bama minipigs
Procedure: In this example, 6174 μg/eye of docohexaenoic acid ethyl ester (DHA-EE) was applied to the periorbital skin of a left eye of a Bama minipig. […] 21099.7 ng/g of tissue and 21336.3 ng/g of tissue of DHA was measured in the left and right halves of the brain, respectively. […] The average amount of DHA present in the brain 3 hours post-dosage was 21218 ng/g.
Given that the average Bama pig brain weighs around 60 g, the amount of DHA delivered to the brain can be estimated to be 27,600 ng or 27.6 μg. Therefore, the percentage of administered dose=27.6 μg delivered to brain/6174 μg dosed=0.45% of DHA topically administered to the pig via periorbital administration was delivered to the brain. As a comparison, only about 0.025% of DHA that is orally administered is delivered to the brain or CNS.

[2] = Baseline endogenous levels of DHA, DHA-EE and JV-DE1; type: in vivo; conditions: undosed Bama minipigs
Procedure: Endogenous levels were measured in the plasma, cerebrospinal fluid, ocular tissues (retina, optic nerve, ocular muscles), and brain. The endogenous levels DHA are not attributable to NIODP administration of DHA, DHA-EE, or JV-DE1. The baseline data collected in Table 4 was taken from the same lot of pigs, from the same vendor, as the information collected in Tables 5-7.

[3] = 0 h, DHA-EE 6174 μg to periorbital skin of left eye
[4] = 1 h, DHA-EE 6174 μg to periorbital skin of left eye
[5] = 3 h, DHA-EE 6174 μg to periorbital skin of left eye

Drug Concentration in Plasma, analyte DHA [1, 3]: BLQ
Drug Concentration in Plasma, analyte DHA-EE [1, 3]: BLQ
Drug Concentration in Plasma, analyte DHA [1, 4]: BLQ
Drug Concentration in Plasma, analyte DHA-EE [1, 4]: BLQ
Percentage of administered dose delivered to the brain (as DHA) ([1]; 3 h, DHA-EE 6174 μg periorbital, whole brain estimate): 0.45%
Analyte DHA, % of administered dose: Cerebrospinal fluid [1, 5]: 0%
Analyte DHA, % of administered dose: brain-left [1, 5]: 0.332%
Analyte DHA, % of administered dose: brain-right [1, 5]: 0.562%
Analyte DHA, % of administered dose: inferior rectus muscle-left [1, 5]: 0.008%
Analyte DHA, % of administered dose: inferior rectus muscle-right [1, 5]: 0.009%
Analyte DHA, % of administered dose: lateral rectus muscle-left [1, 5]: 0.004%
Analyte DHA, % of administered dose: lateral rectus muscle-right [1, 5]: 0.010%
Analyte DHA, % of administered dose: medial rectus muscle-left [1, 5]: 0.020%
Analyte DHA, % of administered dose: medial rectus muscle-right [1, 5]: 0.016%
Analyte DHA, % of administered dose: optic nerve-left [1, 5]: 0.011%
Analyte DHA, % of administered dose: optic nerve-right [1, 5]: 0.031%
Analyte DHA, % of administered dose: retina-left [1, 5]: 0.130%
Analyte DHA, % of administered dose: retina-right [1, 5]: 0.110%
Analyte DHA, % of administered dose: superior rectus muscle-left [1, 5]: 0.043%
Analyte DHA, % of administered dose: superior rectus muscle-right [1, 5]: 0.005%
Analyte DHA, Concentration in Tissue: Cerebrospinal fluid [1, 5]: 0 ng/g
Analyte DHA, Concentration in Tissue: brain-left [1, 5]: 21099.7 ng/g
Analyte DHA, Concentration in Tissue: brain-right [1, 5]: 21336.3 ng/g
Analyte DHA, Concentration in Tissue: inferior rectus muscle-left [1, 5]: 3161.1 ng/g
Analyte DHA, Concentration in Tissue: inferior rectus muscle-right [1, 5]: 1287.8 ng/g
Analyte DHA, Concentration in Tissue: lateral rectus muscle-left [1, 5]: 1356.3 ng/g
Analyte DHA, Concentration in Tissue: lateral rectus muscle-right [1, 5]: 1085.6 ng/g
Analyte DHA, Concentration in Tissue: medial rectus muscle-left [1, 5]: 4874.6 ng/g
Analyte DHA, Concentration in Tissue: medial rectus muscle-right [1, 5]: 1690.7 ng/g
Analyte DHA, Concentration in Tissue: optic nerve-left [1, 5]: 8794.6 ng/g
Analyte DHA, Concentration in Tissue: optic nerve-right [1, 5]: 8839.4 ng/g
Analyte DHA, Concentration in Tissue: retina-left [1, 5]: 48882.9 ng/g
Analyte DHA, Concentration in Tissue: retina-right [1, 5]: 41629.4 ng/g
Analyte DHA, Concentration in Tissue: superior rectus muscle-left [1, 5]: 10400.7 ng/g
Analyte DHA, Concentration in Tissue: superior rectus muscle-right [1, 5]: 743.6 ng/g
Analyte DHA-EE, % of administered dose: Cerebrospinal fluid [1, 5]: 0%
Analyte DHA-EE, % of administered dose: brain-left [1, 5]: 0%
Analyte DHA-EE, % of administered dose: brain-right [1, 5]: 0%
Analyte DHA-EE, % of administered dose: inferior rectus muscle-left [1, 5]: 0.02%
Analyte DHA-EE, % of administered dose: inferior rectus muscle-right [1, 5]: 0%
Analyte DHA-EE, % of administered dose: lateral rectus muscle-left [1, 5]: 0.003%
Analyte DHA-EE, % of administered dose: lateral rectus muscle-right [1, 5]: 0%
Analyte DHA-EE, % of administered dose: medial rectus muscle-left [1, 5]: 0.02%
Analyte DHA-EE, % of administered dose: medial rectus muscle-right [1, 5]: 0%
Analyte DHA-EE, % of administered dose: optic nerve-left [1, 5]: 0%
Analyte DHA-EE, % of administered dose: optic nerve-right [1, 5]: 0%
Analyte DHA-EE, % of administered dose: retina-left [1, 5]: 0%
Analyte DHA-EE, % of administered dose: retina-right [1, 5]: 0%
Analyte DHA-EE, % of administered dose: superior rectus muscle-left [1, 5]: 0.04%
Analyte DHA-EE, % of administered dose: superior rectus muscle-right [1, 5]: 0%
Analyte DHA-EE, Concentration in Tissue: Cerebrospinal fluid [1, 5]: 0 ng/g
Analyte DHA-EE, Concentration in Tissue: brain-left [1, 5]: 0 ng/g
Analyte DHA-EE, Concentration in Tissue: brain-right [1, 5]: 0 ng/g
Analyte DHA-EE, Concentration in Tissue: inferior rectus muscle-left [1, 5]: 7444.8 ng/g
Analyte DHA-EE, Concentration in Tissue: inferior rectus muscle-right [1, 5]: 0 ng/g
Analyte DHA-EE, Concentration in Tissue: lateral rectus muscle-left [1, 5]: 995.7 ng/g
Analyte DHA-EE, Concentration in Tissue: lateral rectus muscle-right [1, 5]: 0 ng/g
Analyte DHA-EE, Concentration in Tissue: medial rectus muscle-left [1, 5]: 7382.3 ng/g
Analyte DHA-EE, Concentration in Tissue: medial rectus muscle-right [1, 5]: 0 ng/g
Analyte DHA-EE, Concentration in Tissue: optic nerve-left [1, 5]: 0 ng/g
Analyte DHA-EE, Concentration in Tissue: retina-left [1, 5]: 0 ng/g
Analyte DHA-EE, Concentration in Tissue: retina-right [1, 5]: 0 ng/g
Analyte DHA-EE, Concentration in Tissue: superior rectus muscle-left [1, 5]: 12844.5 ng/g
Analyte DHA-EE, Concentration in Tissue: superior rectus muscle-right [1, 5]: 0 ng/g
Average DHA present in the brain [1, 5]: 21218 ng/g
DHA-EE in ocular muscles of the dosed eye [1, 5]: detectable
DHA-EE measured in the brain [1, 5]: no DHA-EE was measured in the brain
Drug Concentration in Plasma, analyte DHA [1, 5]: BLQ
Drug Concentration in Plasma, analyte DHA-EE [1, 5]: BLQ
Baseline endogenous concentration in brain [2]: BLQ
Baseline endogenous concentration in cerebrospinal fluid [2]: BLQ
Baseline endogenous concentration in eye tissue homogenate including (Retina, optic nerve, ocular muscle) [2]: BLQ
Baseline endogenous concentration in plasma [2]: BLQ
Structure (SMILES): CC/C=C\C/C=C\C/C=C\C/C=C\C/C=C\C/C=C\CCC(=O)OCC [DHA-EE, Docosahexaenoic acid ethyl ester]
